Data reported in article PMC12028158, “Synthesis and In Vitro Evaluation of the Anticancer Effect of Novel Phosphonium Vindoline Derivatives” (International Journal of Molecular Sciences, 2025).

Tests used:
Format in all cases: cell-based
K-562 = assay: NCI60 five-dose screen; settings: Homo sapiens, K562
RPMI-8226 = assay: NCI60 five-dose screen; settings: Homo sapiens, RPMI-8226
EKVX [1] = assay: NCI60 five-dose screen; settings: Homo sapiens
NCI-H226 = assay: NCI60 five-dose screen; settings: Homo sapiens, NCI-H226
NCI-H322M = assay: NCI60 five-dose screen; settings: Homo sapiens
COLO 205 = assay: NCI60 five-dose screen; settings: Homo sapiens, COLO 205
HCT-116 = assay: NCI60 five-dose screen; settings: Homo sapiens, HCT-116
HCT-15 = assay: NCI60 five-dose screen; settings: Homo sapiens, HCT-15
SF-268 = assay: NCI60 five-dose screen; settings: Homo sapiens, SF-268
SF-539 [2] = assay: NCI60 five-dose screen; settings: Homo sapiens, SF-539
SNB-19 = assay: NCI60 five-dose screen; settings: Homo sapiens, SNB-19
MALME-3M = assay: NCI60 five-dose screen; settings: Homo sapiens, Malme-3M
UACC-62 [3] = assay: NCI60 five-dose screen; settings: Homo sapiens, UACC-62
IGROV1 [4] = assay: NCI60 five-dose screen; settings: Homo sapiens, IGROV-1
OVCAR-8 [5] = assay: NCI60 five-dose screen; settings: Homo sapiens, OVCAR-8
NCI/ADR-RES [6] = assay: NCI60 five-dose screen; settings: Homo sapiens
SN12C [7] = assay: NCI60 five-dose screen; settings: Homo sapiens
TK-10 = assay: NCI60 five-dose screen; settings: Homo sapiens, TK-10
MCF7 [8] = assay: NCI60 five-dose screen; settings: Homo sapiens, MCF7
HS 578T = assay: NCI60 five-dose screen; settings: Homo sapiens, Hs-578T
BT-549 [9] = assay: NCI60 five-dose screen; settings: Homo sapiens, BT-549
Leukemia panel = assay: NCI60 five-dose screen, panel mean; settings: Homo sapiens, read-out: GI50 Mean
Colon Cancer panel = assay: NCI60 five-dose screen, panel mean; settings: Homo sapiens, read-out: GI50 Mean
CNS Cancer panel = assay: NCI60 five-dose screen, panel mean; settings: Homo sapiens, read-out: GI50 Mean
Ovarian Cancer panel = assay: NCI60 five-dose screen, panel mean; settings: Homo sapiens, read-out: GI50 Mean
Prostate Cancer panel = assay: NCI60 five-dose screen, panel mean; settings: Homo sapiens, read-out: GI50 Mean
Breast Cancer panel = assay: NCI60 five-dose screen, panel mean; settings: Homo sapiens, read-out: GI50 Mean
CCRF-CEM [10] = assay: NCI60 one-dose screen; settings: Homo sapiens, read-out: Growth percent
EKVX [11] = assay: NCI60 one-dose screen; settings: Homo sapiens, read-out: Growth percent
NCI-H460 = assay: NCI60 one-dose screen; settings: Homo sapiens, NCI-H460, read-out: Growth percent
HCC-2998 = assay: NCI60 one-dose screen; settings: Homo sapiens, HCC 2998, read-out: Growth percent
SF-539 [12] = assay: NCI60 one-dose screen; settings: Homo sapiens, SF-539, read-out: Growth percent
SNB-75 = assay: NCI60 one-dose screen; settings: Homo sapiens, SNB-75, read-out: Growth percent
U251 = assay: NCI60 one-dose screen; settings: Homo sapiens, U-251, read-out: Growth percent
SK-MEL-5 = assay: NCI60 one-dose screen; settings: Homo sapiens, SK-MEL-5, read-out: Growth percent
UACC-257 = assay: NCI60 one-dose screen; settings: Homo sapiens, UACC-257, read-out: Growth percent
UACC-62 [13] = assay: NCI60 one-dose screen; settings: Homo sapiens, UACC-62, read-out: Growth percent
IGROV1 [14] = assay: NCI60 one-dose screen; settings: Homo sapiens, IGROV-1, read-out: Growth percent
OVCAR-3 = assay: NCI60 one-dose screen; settings: Homo sapiens, OVCAR-3, read-out: Growth percent
OVCAR-8 [15] = assay: NCI60 one-dose screen; settings: Homo sapiens, OVCAR-8, read-out: Growth percent
NCI/ADR-RES [16] = assay: NCI60 one-dose screen; settings: Homo sapiens, read-out: Growth percent
CAKI-1 = assay: NCI60 one-dose screen; settings: Homo sapiens, CAKI-1, read-out: Growth percent
RXF 393 = assay: NCI60 one-dose screen; settings: Homo sapiens, RXF 393, read-out: Growth percent
SN12C [17] = assay: NCI60 one-dose screen; settings: Homo sapiens, read-out: Growth percent
PC-3 = assay: NCI60 one-dose screen; settings: Homo sapiens, PC-3, read-out: Growth percent
MCF7 [18] = assay: NCI60 one-dose screen; settings: Homo sapiens, MCF7, read-out: Growth percent
BT-549 [19] = assay: NCI60 one-dose screen; settings: Homo sapiens, BT-549, read-out: Growth percent
CCRF-CEM [20] = assay: NCI60 five-dose screen; settings: Homo sapiens

CC[C@]12C=CCN3CC[C@@]4(c5ccc(OC)cc5N(C)[C@H]4[C@@](O)(C(=O)OC)[C@@H]1OC(=O)CCCC[P+](c1ccc(OC)cc1)(c1ccc(OC)cc1)c1ccc(OC)cc1)[C@@H]32 [10b]
GI50 (K-562): 675 nM | GI50 (RPMI-8226): 299 nM | GI50 (EKVX [1]): 185 nM | GI50 (NCI-H226): 2030 nM | GI50 (NCI-H322M): 2790 nM | GI50 (COLO 205): 214 nM | GI50 (HCT-116): 1300 nM | GI50 (HCT-15): 8790 nM | GI50 (SF-268): 1470 nM | GI50 (SF-539 [2]): 1520 nM | GI50 (SNB-19): 484 nM | GI50 (MALME-3M): 1130 nM | GI50 (UACC-62 [3]): 963 nM | GI50 (IGROV1 [4]): 548 nM | GI50 (OVCAR-8 [5]): 1990 nM | GI50 (NCI/ADR-RES [6]): 20500 nM | GI50 (SN12C [7]): 1180 nM | GI50 (TK-10): 1670 nM | GI50 (MCF7 [8]): 105 nM | GI50 (HS 578T): 1510 nM | GI50 (BT-549 [9]): 1250 nM | GI50 (Leukemia panel): 560 nM | GI50 (Colon Cancer panel): 1880 nM | GI50 (CNS Cancer panel): 1170 nM | GI50 (Ovarian Cancer panel): 4110 nM | GI50 (Prostate Cancer panel): 8280 nM | GI50 (Breast Cancer panel): 700 nM | activity at 10 µM (CCRF-CEM [10]): -59.1% | activity at 10 µM (EKVX [11]): -59.7% | activity at 10 µM (NCI-H460): -87% | activity at 10 µM (HCC-2998): -88.4% | activity at 10 µM (SF-539 [12]): -97.5% | activity at 10 µM (SNB-75): -95.4% | activity at 10 µM (U251): -95.9% | activity at 10 µM (SK-MEL-5): -97% | activity at 10 µM (UACC-257): -93.4% | activity at 10 µM (UACC-62 [13]): -95.2% | activity at 10 µM (IGROV1 [14]): -92% | activity at 10 µM (OVCAR-3): -71.8% | activity at 10 µM (OVCAR-8 [15]): -90.2% | activity at 10 µM (NCI/ADR-RES [16]): 84.3% | activity at 10 µM (CAKI-1): -78.5% | activity at 10 µM (RXF 393): -90.4% | activity at 10 µM (SN12C [17]): -95.3% | activity at 10 µM (PC-3): -37.2% | activity at 10 µM (MCF7 [18]): -82.6% | activity at 10 µM (BT-549 [19]): -96.7%

CCC12C=CCN3CC[C@@]4(c5ccc(OC)cc5N(C)[C@H]4[C@@](O)(C(=O)OC)[C@@H]1OC(C)=O)[C@@H]32 (some centres unmarked) [compound 2, vindoline]
activity at 10 µM (CCRF-CEM [10]): 96.5% | activity at 10 µM (EKVX [11]): 102% | activity at 10 µM (NCI-H460): 104% | activity at 10 µM (HCC-2998): 118% | activity at 10 µM (SF-539 [12]): 104% | activity at 10 µM (SNB-75): 73.1% | activity at 10 µM (U251): 99.4% | activity at 10 µM (SK-MEL-5): 102% | activity at 10 µM (UACC-257): 98.7% | activity at 10 µM (UACC-62 [13]): 94.7% | activity at 10 µM (IGROV1 [14]): 98.4% | activity at 10 µM (OVCAR-3): 112% | activity at 10 µM (OVCAR-8 [15]): 99.8% | activity at 10 µM (NCI/ADR-RES [16]): 110% | activity at 10 µM (CAKI-1): 97.5% | activity at 10 µM (RXF 393): 104% | activity at 10 µM (SN12C [17]): 96.1% | activity at 10 µM (PC-3): 88.3% | activity at 10 µM (MCF7 [18]): 99% | activity at 10 µM (BT-549 [19]): 114%

CC[C@]12C=CCN3CC[C@@]4(c5ccc(OC)cc5N(C)[C@H]4[C@@](O)(C(=O)OC)[C@@H]1OC(=O)CCCC[P+](c1ccccc1)(c1ccccc1)c1ccccc1)[C@@H]32 [compound 4, reference compound]
GI50 (CCRF-CEM [20]): 697 nM | GI50 (RPMI-8226): 497 nM | GI50 (EKVX [1]): 586 nM | GI50 (NCI-H226): 1930 nM | GI50 (NCI-H322M): 3000 nM | GI50 (COLO 205): 242 nM | GI50 (HCT-116): 1060 nM | GI50 (HCT-15): 18600 nM | GI50 (SF-268): 634 nM | GI50 (SF-539 [2]): 1300 nM | GI50 (SNB-19): 397 nM | GI50 (MALME-3M): 273 nM | GI50 (UACC-62 [3]): 403 nM | GI50 (IGROV1 [4]): 553 nM | GI50 (OVCAR-8 [5]): 1740 nM | GI50 (NCI/ADR-RES [6]): > 100000 nM | GI50 (SN12C [7]): 467 nM | GI50 (TK-10): 2820 nM | GI50 (MCF7 [8]): 322 nM | GI50 (HS 578T): 1230 nM | GI50 (BT-549 [9]): 583 nM | GI50 (Leukemia panel): 600 nM | GI50 (Colon Cancer panel): 3190 nM | GI50 (CNS Cancer panel): 940 nM | GI50 (Ovarian Cancer panel): 15100 nM | GI50 (Prostate Cancer panel): 570 nM | GI50 (Breast Cancer panel): 500 nM | activity at 10 µM (CCRF-CEM [10]): 15.6% | activity at 10 µM (EKVX [11]): 56.1% | activity at 10 µM (NCI-H460): 18.4% | activity at 10 µM (HCC-2998): 15.9% | activity at 10 µM (SF-539 [12]): 19% | activity at 10 µM (SNB-75): -12.8% | activity at 10 µM (U251): 10.9% | activity at 10 µM (SK-MEL-5): -72.9% | activity at 10 µM (UACC-257): 2.15% | activity at 10 µM (UACC-62 [13]): -6.54% | activity at 10 µM (IGROV1 [14]): -36.4% | activity at 10 µM (OVCAR-3): -0.29% | activity at 10 µM (OVCAR-8 [15]): 18.6% | activity at 10 µM (NCI/ADR-RES [16]): 91.6% | activity at 10 µM (CAKI-1): 85.9% | activity at 10 µM (RXF 393): -13.3% | activity at 10 µM (SN12C [17]): 4.56% | activity at 10 µM (MCF7 [18]): 4.69% | activity at 10 µM (BT-549 [19]): -1.04%
